What was measured:
[1] = system: TNF-alpha (h); test: CEREP radioligand binding; parameters: species or system human; settings: % of control specific binding
Procedure: (§1) SB-334867 was evaluated in a selectivity screen performed at CEREP (Paris, France). The screen consisted of binding assays on a panel of 79 target receptors. The specific binding (SB) of a radioligand to each target receptor was defined as the difference between the total binding and the nonspecific binding determined in the presence of a cold competitor in excess. […] Details on the CEREP screen are available from www.cerep.fr.

[2] = system: panel of 79 target receptors; test: CEREP selectivity screen, panel of 79 target receptors; type: binding; settings: 10 µM; all targets except A2A, A3, MT3, P2Y, 5HT2C
Procedure: as §1
Among the 79 receptors tested, 30 were peptide receptors. […] The selectivity profiles of almorexant and EMPA [37] have been reported previously.

[3] = target: T1, beta 2 (h) (Homo sapiens, UniProt P07550); test: CEREP radioligand binding; settings: % of control specific binding
T1 construct: purchased CEREP
T1 sequence (P07550 whole entry): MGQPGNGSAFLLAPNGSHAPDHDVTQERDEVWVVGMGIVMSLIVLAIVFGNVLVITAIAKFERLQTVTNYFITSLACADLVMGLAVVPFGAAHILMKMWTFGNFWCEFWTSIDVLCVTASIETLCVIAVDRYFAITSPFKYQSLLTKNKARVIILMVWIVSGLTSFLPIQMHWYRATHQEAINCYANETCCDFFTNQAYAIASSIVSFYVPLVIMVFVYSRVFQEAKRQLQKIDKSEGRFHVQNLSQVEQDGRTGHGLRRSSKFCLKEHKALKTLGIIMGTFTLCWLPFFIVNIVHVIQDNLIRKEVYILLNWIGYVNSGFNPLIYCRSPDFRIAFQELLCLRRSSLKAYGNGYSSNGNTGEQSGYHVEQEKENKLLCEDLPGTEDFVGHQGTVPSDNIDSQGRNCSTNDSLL
Procedure: as §1

[4] = target: T2, B2 (h) (Homo sapiens, UniProt P30411); test: CEREP radioligand binding; settings: % of control specific binding
T2 construct: purchased CEREP
T2 sequence (P30411 whole entry): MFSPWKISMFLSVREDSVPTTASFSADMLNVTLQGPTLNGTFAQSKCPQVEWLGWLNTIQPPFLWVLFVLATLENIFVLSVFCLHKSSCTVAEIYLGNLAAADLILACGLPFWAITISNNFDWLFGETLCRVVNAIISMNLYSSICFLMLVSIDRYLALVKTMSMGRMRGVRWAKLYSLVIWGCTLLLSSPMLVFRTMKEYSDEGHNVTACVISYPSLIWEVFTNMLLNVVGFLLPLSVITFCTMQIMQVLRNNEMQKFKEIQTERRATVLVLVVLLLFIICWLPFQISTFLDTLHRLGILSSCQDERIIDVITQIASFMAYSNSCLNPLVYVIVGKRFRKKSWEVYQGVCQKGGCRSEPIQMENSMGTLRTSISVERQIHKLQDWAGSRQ
Procedure: as §1

[5] = target: T3, D3 (h) (Homo sapiens, UniProt P35462); test: CEREP radioligand binding; settings: % of control specific binding
T3 construct: purchased CEREP
T3 sequence (P35462 whole entry): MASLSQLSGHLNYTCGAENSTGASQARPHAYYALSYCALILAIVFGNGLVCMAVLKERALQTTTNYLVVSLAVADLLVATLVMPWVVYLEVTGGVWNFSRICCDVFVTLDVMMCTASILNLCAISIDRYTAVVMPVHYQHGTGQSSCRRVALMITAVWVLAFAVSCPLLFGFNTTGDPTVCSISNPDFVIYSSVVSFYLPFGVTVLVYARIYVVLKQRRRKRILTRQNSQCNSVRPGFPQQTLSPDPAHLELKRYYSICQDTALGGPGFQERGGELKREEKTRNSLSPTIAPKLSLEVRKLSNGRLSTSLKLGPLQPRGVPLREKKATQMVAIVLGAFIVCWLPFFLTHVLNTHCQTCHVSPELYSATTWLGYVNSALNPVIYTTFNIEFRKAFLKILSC
Procedure: as §1

[6] = target: T4, M1 (h) (Homo sapiens, UniProt P11229); test: CEREP radioligand binding; settings: % of control specific binding
T4 construct: purchased CEREP
T4 sequence (P11229 whole entry): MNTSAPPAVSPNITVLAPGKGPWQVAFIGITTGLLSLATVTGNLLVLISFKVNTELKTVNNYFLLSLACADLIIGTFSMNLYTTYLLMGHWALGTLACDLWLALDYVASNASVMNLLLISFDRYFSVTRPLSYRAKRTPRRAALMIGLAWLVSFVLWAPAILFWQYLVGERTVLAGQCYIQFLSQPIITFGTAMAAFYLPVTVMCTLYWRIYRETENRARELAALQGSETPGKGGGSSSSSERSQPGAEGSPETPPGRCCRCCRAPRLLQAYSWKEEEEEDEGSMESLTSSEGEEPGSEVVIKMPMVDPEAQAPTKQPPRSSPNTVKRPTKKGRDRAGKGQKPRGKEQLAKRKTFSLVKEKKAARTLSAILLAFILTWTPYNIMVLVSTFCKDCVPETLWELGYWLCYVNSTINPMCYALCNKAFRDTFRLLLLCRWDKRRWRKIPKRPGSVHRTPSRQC
Procedure: as §1

[7] = target: T5, MT1 (h) (Homo sapiens, UniProt P48039); test: CEREP radioligand binding; settings: % of control specific binding
T5 construct: purchased CEREP
Procedure: as §1

[8] = target: T6, CCKB (h) (CCK2) (Homo sapiens, UniProt P32239); test: CEREP radioligand binding; settings: % of control specific binding
T6 construct: purchased CEREP
T6 sequence (P32239 whole entry): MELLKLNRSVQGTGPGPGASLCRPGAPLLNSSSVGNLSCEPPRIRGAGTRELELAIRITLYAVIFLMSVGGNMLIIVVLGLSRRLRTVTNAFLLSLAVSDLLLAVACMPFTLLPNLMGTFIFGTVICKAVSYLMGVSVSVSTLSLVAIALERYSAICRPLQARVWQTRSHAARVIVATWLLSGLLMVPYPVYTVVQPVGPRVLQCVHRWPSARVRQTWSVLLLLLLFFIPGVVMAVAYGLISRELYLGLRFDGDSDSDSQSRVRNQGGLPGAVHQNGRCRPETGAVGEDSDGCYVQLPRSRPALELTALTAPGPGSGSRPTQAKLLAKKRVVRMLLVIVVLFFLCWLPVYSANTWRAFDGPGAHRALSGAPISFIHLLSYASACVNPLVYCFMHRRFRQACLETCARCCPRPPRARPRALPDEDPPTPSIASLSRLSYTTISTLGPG
Procedure: as §1

[9] = system: P2Y; test: CEREP radioligand binding
Procedure: as §1

[10] = target: T7, GAL1 (h) (Homo sapiens, UniProt P47211); test: CEREP radioligand binding; settings: % of control specific binding
T7 construct: purchased CEREP
T7 sequence (P47211 whole entry): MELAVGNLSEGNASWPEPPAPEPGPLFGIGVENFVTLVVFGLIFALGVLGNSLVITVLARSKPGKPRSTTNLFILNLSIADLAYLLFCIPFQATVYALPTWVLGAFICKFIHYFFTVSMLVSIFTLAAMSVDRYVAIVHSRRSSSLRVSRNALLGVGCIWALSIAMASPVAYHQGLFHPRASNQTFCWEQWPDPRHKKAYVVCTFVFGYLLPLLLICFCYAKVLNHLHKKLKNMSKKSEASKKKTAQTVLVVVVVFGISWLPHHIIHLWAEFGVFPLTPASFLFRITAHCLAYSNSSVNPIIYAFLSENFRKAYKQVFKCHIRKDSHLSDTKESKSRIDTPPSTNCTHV
Procedure: as §1

[11] = target: T8, NK2 (h) (Homo sapiens, UniProt P21452); test: CEREP radioligand binding; settings: % of control specific binding
T8 construct: purchased CEREP
Procedure: as §1

[12] = target: T9, 5-HT transporter (h) (Homo sapiens, UniProt P31645); test: CEREP radioligand binding; settings: % of control specific binding
T9 construct: purchased CEREP
T9 sequence (P31645 whole entry): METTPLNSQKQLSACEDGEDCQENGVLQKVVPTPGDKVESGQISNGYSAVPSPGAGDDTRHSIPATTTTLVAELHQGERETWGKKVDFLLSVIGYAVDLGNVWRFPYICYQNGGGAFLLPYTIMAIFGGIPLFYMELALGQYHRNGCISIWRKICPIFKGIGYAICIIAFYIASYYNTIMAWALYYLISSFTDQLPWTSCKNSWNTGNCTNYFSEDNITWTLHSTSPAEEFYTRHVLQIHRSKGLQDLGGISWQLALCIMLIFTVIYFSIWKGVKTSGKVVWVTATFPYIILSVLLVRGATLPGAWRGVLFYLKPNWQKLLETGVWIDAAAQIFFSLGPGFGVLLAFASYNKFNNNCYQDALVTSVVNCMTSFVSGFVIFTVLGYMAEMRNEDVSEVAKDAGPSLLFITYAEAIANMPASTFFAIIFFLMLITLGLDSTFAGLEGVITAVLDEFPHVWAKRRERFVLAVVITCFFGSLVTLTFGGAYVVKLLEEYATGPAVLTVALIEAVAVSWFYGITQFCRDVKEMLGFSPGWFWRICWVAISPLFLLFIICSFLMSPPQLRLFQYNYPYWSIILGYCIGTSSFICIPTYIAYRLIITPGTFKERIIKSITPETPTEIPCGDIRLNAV
Procedure: as §1

[13] = target: T10, DA transporter (h) (Homo sapiens, UniProt Q01959); test: CEREP radioligand binding; settings: % of control specific binding
T10 construct: purchased CEREP
Procedure: as §1

[14] = target: T11, Y1 (h) (Homo sapiens, UniProt P25929); test: CEREP radioligand binding; settings: % of control specific binding
T11 construct: purchased CEREP
T11 sequence (P25929 whole entry): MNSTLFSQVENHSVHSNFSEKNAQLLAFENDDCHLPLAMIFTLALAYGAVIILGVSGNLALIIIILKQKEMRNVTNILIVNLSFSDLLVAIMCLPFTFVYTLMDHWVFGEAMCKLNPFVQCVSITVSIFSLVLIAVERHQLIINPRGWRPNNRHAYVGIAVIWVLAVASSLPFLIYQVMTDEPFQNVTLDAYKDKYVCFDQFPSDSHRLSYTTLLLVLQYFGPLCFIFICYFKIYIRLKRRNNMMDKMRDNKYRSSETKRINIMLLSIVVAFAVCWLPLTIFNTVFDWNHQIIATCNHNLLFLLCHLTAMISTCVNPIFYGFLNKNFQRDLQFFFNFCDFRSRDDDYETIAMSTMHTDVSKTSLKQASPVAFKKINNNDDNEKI
Procedure: as §1

[15] = system: K+V channel; test: CEREP radioligand binding; settings: % of control specific binding
Procedure: as §1

[16] = target: T12, 5-HT7 (h) (Homo sapiens, UniProt P34969); test: CEREP radioligand binding; settings: % of control specific binding
T12 construct: purchased CEREP
T12 sequence (P34969 whole entry): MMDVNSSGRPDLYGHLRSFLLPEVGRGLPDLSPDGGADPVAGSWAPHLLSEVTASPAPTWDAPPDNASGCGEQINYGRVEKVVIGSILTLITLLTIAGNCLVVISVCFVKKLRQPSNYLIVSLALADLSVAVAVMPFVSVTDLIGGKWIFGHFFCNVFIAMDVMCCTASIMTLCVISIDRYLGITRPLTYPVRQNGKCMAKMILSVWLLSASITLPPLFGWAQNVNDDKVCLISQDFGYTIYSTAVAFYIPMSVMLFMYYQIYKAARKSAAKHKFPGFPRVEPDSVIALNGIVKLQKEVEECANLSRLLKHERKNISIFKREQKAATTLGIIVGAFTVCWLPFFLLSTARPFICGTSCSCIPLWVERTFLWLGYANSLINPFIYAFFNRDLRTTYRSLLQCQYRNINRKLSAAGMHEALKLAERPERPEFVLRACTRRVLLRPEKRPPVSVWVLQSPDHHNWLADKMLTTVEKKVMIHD
Procedure: as §1

[17] = target: T13, NE transporter (h) (Homo sapiens, UniProt P23975); test: CEREP radioligand binding; settings: % of control specific binding
T13 construct: purchased CEREP
Procedure: as §1

[18] = target: T14, V1a (h) (Homo sapiens, UniProt P37288); test: CEREP radioligand binding; settings: % of control specific binding
T14 construct: purchased CEREP
Procedure: as §1

[19] = target: T15, 5-HT2A (h) (Homo sapiens, UniProt P28223); test: CEREP radioligand binding; settings: % of control specific binding
T15 construct: purchased CEREP
T15 sequence (P28223 whole entry): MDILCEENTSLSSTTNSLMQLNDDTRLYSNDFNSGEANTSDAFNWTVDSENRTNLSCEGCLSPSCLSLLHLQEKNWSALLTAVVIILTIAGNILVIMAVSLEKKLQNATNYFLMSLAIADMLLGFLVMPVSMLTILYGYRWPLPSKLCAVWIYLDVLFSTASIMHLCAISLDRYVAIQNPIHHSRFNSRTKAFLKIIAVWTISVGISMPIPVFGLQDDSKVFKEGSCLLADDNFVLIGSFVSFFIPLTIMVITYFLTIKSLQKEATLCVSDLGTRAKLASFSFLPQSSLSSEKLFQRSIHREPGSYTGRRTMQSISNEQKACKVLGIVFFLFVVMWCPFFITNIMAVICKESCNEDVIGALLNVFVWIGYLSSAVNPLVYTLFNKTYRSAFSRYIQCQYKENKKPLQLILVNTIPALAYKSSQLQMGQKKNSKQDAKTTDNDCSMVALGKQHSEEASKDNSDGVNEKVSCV
Procedure: as §1

[20] = target: T16, CCR1 (h) (Homo sapiens, UniProt P32246); test: CEREP radioligand binding; settings: % of control specific binding
T16 construct: purchased CEREP
T16 sequence (P32246 whole entry): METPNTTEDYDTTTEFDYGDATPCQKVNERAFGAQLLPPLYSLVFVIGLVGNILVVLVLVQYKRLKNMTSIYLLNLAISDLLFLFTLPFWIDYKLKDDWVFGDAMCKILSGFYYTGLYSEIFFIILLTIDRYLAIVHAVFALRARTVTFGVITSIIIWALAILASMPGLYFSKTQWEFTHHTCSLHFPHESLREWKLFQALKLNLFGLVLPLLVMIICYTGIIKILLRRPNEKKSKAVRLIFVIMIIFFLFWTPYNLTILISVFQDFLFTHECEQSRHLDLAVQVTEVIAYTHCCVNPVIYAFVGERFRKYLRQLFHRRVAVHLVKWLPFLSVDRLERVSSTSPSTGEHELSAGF
Procedure: as §1

[21] = target: T17, HCRTR1 (Rattus norvegicus, UniProt P56718); test: in vivo; type: in vivo
T17 construct: from tissue; host or cells: coronal brain sections of male Sprague-Dawley rats (locus coeruleus)
T17 sequence (P56718 1-416): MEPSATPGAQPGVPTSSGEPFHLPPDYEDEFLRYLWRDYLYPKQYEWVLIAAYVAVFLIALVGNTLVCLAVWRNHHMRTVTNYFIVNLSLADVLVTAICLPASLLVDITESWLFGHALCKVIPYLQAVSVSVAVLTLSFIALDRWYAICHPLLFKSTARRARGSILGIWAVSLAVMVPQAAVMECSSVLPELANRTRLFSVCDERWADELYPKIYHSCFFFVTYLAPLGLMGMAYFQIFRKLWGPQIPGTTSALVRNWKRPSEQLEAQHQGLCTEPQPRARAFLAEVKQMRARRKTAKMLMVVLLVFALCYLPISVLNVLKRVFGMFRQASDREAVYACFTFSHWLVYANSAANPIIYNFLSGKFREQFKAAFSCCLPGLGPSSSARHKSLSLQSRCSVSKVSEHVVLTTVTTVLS

[22] = target: T18, rHCRTR2 (Rattus norvegicus, UniProt P56719); test: Inhibition of [^3H]almorexant binding to HEK293-rHCRTR2 membranes
T18 construct: expressed in transfected cells; host or cells: HEK293 (transient transfection, pCI-Neo vector), membrane preparation
From the text: The rat cDNAs encoding HCRTR1 (Accession No. P56718) and HCRTR2 (Accession No. P56719) were subcloned into pCI-Neo expression vectors (Promega, Madison, WI) and used to transfect HEK293 cells (acquired commercially from ATCC-LGC, Molsheim, France) as previously described.

[23] = target: T19, HCRTR2 (Rattus norvegicus, UniProt P56719); test: HCRTR2 occupancy, [^3H]EMPA autoradiography of brain sections; type: in vivo; settings: 30 mg/kg ip; for receptor occupancy at 30 mg/kg: rat, ip, 12 h
T19 construct: from tissue; host or cells: coronal brain sections of male Sprague-Dawley rats (TMN, DRN, CC, CA3, RSC, Pn)
T19 sequence (P56719 1-460): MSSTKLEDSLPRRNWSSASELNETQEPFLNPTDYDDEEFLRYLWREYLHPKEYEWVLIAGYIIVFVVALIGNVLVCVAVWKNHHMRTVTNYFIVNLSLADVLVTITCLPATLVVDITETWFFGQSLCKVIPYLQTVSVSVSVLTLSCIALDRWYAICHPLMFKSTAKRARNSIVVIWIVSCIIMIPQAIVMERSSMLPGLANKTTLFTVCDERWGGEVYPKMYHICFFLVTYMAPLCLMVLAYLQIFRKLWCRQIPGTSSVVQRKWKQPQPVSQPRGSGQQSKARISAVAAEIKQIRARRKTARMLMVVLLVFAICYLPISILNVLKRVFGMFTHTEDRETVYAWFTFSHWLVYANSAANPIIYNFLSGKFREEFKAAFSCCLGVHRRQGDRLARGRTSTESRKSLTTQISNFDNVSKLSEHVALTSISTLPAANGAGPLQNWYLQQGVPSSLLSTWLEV

Cc1nc2ccc(NC(=O)Nc3ccnc4cccnc34)cc2o1.Cl [SB-334867, 1-(2-methylbenzoxazol-6-yl)-3-[1], [5]naphthyridin-4-yl-urea hydrochloride]
% Control (10 µM) Mean SB [1]: 96.8% | activity at all other targets tested [2]: < 40% | % Control (10 µM) Mean SB [3]: 94.6% | % Control (10 µM) Mean SB [4]: 97% | % Control (10 µM) Mean SB [5]: 97.1% | % Control (10 µM) Mean SB [6]: 103.6% | % Control (10 µM) Mean SB [7]: 102.4% | % Control (10 µM) Mean SB [8]: 135.1% | displacement of specific binding ([9]; 10 µM, P2Y (purinergic 2Y)): 64% | % Control (10 µM) Mean SB ([9]; % of control specific binding): 36.4% | % Control (10 µM) Mean SB [10]: 118.5% | % Control (10 µM) Mean SB [11]: 96% | % Control (10 µM) Mean SB [12]: 110.7% | % Control (10 µM) Mean SB [13]: 72.4% | % Control (10 µM) Mean SB [14]: 102.7% | % Control (10 µM) Mean SB [15]: 108.1% | % Control (10 µM) Mean SB [16]: 99.9% | % Control (10 µM) Mean SB [17]: 49.4% | % Control (10 µM) Mean SB [18]: 106.1% | % Control (10 µM) Mean SB [19]: 89.5% | % Control (10 µM) Mean SB [20]: 94.5%

CNC(=O)[C@@H](c1ccccc1)N1CCc2cc(OC)c(OC)cc2[C@@H]1CCc1ccc(C(F)(F)F)cc1 [almorexant, (2R)-2-[(1S)-6,7-Dimethoxy-1-[2-(4-trifluoromethyl-phenyl)-ethyl]-3,4-dihydro-1H-isoquinolin-2-yl]-N-methyl-2-phenyl-acetamide]
HCRTR1 RO ([21]; in vivo): 50–60% | HCRTR1 RO (in words) ([21]; in vivo): returned to basal levels | HCRTR1 RO, maximum ([21]; in vivo): 59% | receptor occupancy at 30 mg/kg ([21]; ip, read-out: HCRTR1 occupancy): ~50% | Ki [22]: 2 nM | HCRTR2 RO ([23]; all 6 structures, within 30 min, maximal at 2 h and 4 h): ~100% | receptor occupancy at 30 mg/kg ([23]; CA3): 58.4 ± 11.5% | receptor occupancy at 30 mg/kg ([23]; CC): 66.1 ± 11.6% | receptor occupancy at 30 mg/kg ([23]; DRN): 57.7 ± 10.5% | receptor occupancy at 30 mg/kg ([23]; Pn): 67.2 ± 13.9% | receptor occupancy at 30 mg/kg ([23]; RSC): 64.6 ± 10.7% | receptor occupancy at 30 mg/kg ([23]; TMN): 49.2 ± 13.2%
